Usually MTD stands for the highest dose tested that stayed within the study's limit of toxicity. Lower therefore signals poorer tolerability.

Where “and” joins values, the source holds several entries; their conditions need not be identical. Equal values may be shown once.

The text below walks through data of US4716230A, “Certain bis(di-2 or 4-pyridyl-phosphino) alkanes #10 having anti-tumor properties” (Smithkline Beckman Corporation, priority 1986, dated 1987).

The conditions of data set [1]: Struck et al., J. Med. Chem., 9, 414-416 (1966); cited from earlier work.
Another data set deals with P388 leukemia. The experiment in a line: in vivo ip P388 lymphocytic leukemia mouse model (increase in lifespan). On the set-up: species or system mouse (B6D2F1). Conditions: mice bearing ip P388 leukemia; ip Days 1-5; figures separated by slashes are from separate experiments; active if ≥25 percent ILS. The text has this: P388 lymphocytic leukemia is currently the most widely used animal tumor model for screening for antitumor agents and for detailed evaluation of active compounds. This tumor system is widely accepted as an antitumor agent screening tool because it is sensitive to virtually all of the clinically active antineoplastic agents; quantitative and reproducible; amenable for large-scale screening; and predictive for activity in other animal tumor models.
(§1) 10^6 P388 leukemia cells are inoculated ip in B6D2F1 mice. Twenty-four hours later, if the tumor inoculum proves to be free of bacterial contamination (as determined by 24 hours incubation in thioglycollate broth), animals are randomized into groups of 6 and housed in shoebox cages. The compound to be evaluated is dissolved in a minimal volume of either N,N-dimethylacetamide (DMA) or 95% ethanol (depending upon solubility). An equal volume of saline is added; if the drug comes out of solution an equal volume of polyethoxylated castor oil is added and then saline qs to a concentration such that the desired dose is delivered in 0.5 ml. The final concentration of DMA, ethanol and polyethoxylated castor oil is […]. Dilutions for lower doses are made with saline so there is a decreasing proportion of organic solvents in the vehicle with decreasing dosage. These vehicles provide soluble formulations (or suspensions). Formulations are prepared immediately prior to injection. The compound is administered ip on Days 1 through 5 (i.e. treatment is initiated 24 hrs after tumor inoculation). Each experiment includes three groups of 6 animals as untreated controls and animals treated with a positive control, cisplatin, at two dose levels. Animals are weighed as a group on Days 1, 5 and 9 and average weight change (Δwt.) is used as a reflection of toxicity. Each experiment also includes an inoculum titration--groups of 8 mice inoculated ip with 10^5 to […] P388 leukemia cells. The titration is used to calculate cell kill achieved by treatment with drugs. Animals are monitored daily for mortality and experiments are terminated after 45 days. The endpoint is median survival time (MST) and increase in lifespan (ILS) which is the percentage of increase in MST relative to untreated controls. Untreated controls inoculated ip with 10^6 P388 leukemia cells generally survive for a median of 9 or 11 days. A drug is considered active if it produces ≥25 percent ILS.
^(b) maximum increase in lifespan produced in mice bearing ip P388
leukemia (figures separated by slashes indicate data generated in seperat

Data set [2] is described as follows: maximally tolerated dose in mice, ip qD × 5 regimen. Conditions: mouse, in vivo, B6D2F female mice. How it is done:
as §1
^(a) maximally tolerated dose for B6D2F female mice on an ip qD

Turning to `c1ccc(P(CCP(c2ccccc2)c2ccccc2)c2ccccc2)cc1` [1,2-bis(diphenylphosphino)ethane], in data set [1], the cytotoxic activity entry is “cytotoxic activity”.

With `c1ccc(P(CCP(c2ccccn2)c2ccccn2)c2ccccn2)nc1` [Compound 1, 1,2-Bis(di-2-pyridylphosphino)ethane], the “ILS (max) (maximum increase in lifespan)” value in the data set on P388 leukemia was 30% and 20%. The same molecule returned an MTD in data set [2] of 16 mg/kg.

`c1cc(P(CCP(c2ccncc2)c2ccncc2)c2ccncc2)ccn1` [Compound 2, 1,2-Bis(di-4-pyridylphosphino)ethane]: the “ILS (max) (maximum increase in lifespan)” value in the data set with P388 leukemia is 35% and 37%. The molecule also came in with an MTD in data set [2] of 32 mg/kg.

Take `c1csc(P(CCP(c2cccs2)c2cccs2)c2cccs2)c1` [Compound 3, 1,2-Bis(di-2-thienylphosphino)ethane]: the “ILS (max) (maximum increase in lifespan)” value in the data set on P388 leukemia was 60% and 55%. In data set [2], this molecule registered an MTD of 16 mg/kg.

Take `c1coc(P(CCP(c2ccco2)c2ccco2)c2ccco2)c1` [Compound 4, 1,2-Bis(di-2-furylphosphino)ethane]: the “ILS (max) (maximum increase in lifespan)” value in the data set with P388 leukemia was 60% and 30% and 50%. In data set [2], this molecule had an MTD of 64 mg/kg.
